In PMC7026418, “The kinase polypharmacology landscape of clinical PARP inhibitors” (Scientific Reports, 2020):
Where two headings read alike, the source gives them in different places. Values belong to the compound of their own block, whether it stands above or below them.

How the values were obtained:
Assay in all cases: biochemical
Set-up in all cases: DiscoveRx KINOMEscan active site-directed competition binding; percent of control kinase bound to immobilised ligand
PRKCI = target: T1, PRKCI (Homo sapiens, UniProt P41743)
T1 sequence (P41743 1-596): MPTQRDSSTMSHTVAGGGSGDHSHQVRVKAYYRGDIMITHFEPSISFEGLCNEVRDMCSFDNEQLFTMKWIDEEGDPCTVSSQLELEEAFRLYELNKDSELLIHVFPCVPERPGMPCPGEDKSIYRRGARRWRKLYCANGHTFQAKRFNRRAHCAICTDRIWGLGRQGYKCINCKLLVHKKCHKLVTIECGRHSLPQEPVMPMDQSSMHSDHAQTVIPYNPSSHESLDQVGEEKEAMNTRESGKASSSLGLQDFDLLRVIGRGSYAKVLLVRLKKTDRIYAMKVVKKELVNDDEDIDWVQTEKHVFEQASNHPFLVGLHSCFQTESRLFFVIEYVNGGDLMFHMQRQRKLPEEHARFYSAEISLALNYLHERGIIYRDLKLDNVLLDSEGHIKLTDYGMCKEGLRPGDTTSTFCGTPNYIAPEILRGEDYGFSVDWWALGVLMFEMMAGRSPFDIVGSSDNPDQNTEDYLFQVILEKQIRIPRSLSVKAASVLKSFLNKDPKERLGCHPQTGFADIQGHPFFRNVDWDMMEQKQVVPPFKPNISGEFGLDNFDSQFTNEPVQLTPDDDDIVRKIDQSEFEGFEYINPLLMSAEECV

MET(Y1235D) = MET(Y1235D) (Homo sapiens, UniProt P08581, Y1235D)
DDR2 = target: T2, DDR2 (Homo sapiens, UniProt Q16832)
T2 sequence (Q16832 1-855): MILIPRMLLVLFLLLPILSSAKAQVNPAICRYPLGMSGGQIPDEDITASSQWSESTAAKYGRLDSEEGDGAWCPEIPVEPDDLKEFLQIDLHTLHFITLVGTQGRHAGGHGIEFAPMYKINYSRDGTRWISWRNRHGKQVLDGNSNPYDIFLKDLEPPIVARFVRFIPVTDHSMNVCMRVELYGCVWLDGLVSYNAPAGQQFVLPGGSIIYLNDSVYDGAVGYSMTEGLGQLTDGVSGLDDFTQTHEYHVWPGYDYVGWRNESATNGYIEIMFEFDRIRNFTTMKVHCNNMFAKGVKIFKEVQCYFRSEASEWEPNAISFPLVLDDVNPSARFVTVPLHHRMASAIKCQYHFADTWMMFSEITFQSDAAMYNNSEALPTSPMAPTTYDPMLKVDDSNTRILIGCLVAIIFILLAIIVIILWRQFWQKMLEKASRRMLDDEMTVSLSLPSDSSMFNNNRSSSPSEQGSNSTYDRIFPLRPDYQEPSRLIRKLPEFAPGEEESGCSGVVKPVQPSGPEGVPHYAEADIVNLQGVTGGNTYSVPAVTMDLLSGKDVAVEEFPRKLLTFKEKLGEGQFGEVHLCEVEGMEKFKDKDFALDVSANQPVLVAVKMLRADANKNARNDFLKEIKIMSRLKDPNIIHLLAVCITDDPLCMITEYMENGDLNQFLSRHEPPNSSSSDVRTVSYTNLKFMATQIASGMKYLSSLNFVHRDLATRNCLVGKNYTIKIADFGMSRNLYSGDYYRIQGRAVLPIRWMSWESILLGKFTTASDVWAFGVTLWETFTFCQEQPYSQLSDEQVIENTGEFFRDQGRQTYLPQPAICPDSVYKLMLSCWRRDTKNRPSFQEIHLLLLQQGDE

PLK2 = PLK2 (Homo sapiens, UniProt Q9NYY3)
PLK4 = target: T3, PLK4 (Homo sapiens, UniProt O00444)
T3 sequence (O00444 1-970): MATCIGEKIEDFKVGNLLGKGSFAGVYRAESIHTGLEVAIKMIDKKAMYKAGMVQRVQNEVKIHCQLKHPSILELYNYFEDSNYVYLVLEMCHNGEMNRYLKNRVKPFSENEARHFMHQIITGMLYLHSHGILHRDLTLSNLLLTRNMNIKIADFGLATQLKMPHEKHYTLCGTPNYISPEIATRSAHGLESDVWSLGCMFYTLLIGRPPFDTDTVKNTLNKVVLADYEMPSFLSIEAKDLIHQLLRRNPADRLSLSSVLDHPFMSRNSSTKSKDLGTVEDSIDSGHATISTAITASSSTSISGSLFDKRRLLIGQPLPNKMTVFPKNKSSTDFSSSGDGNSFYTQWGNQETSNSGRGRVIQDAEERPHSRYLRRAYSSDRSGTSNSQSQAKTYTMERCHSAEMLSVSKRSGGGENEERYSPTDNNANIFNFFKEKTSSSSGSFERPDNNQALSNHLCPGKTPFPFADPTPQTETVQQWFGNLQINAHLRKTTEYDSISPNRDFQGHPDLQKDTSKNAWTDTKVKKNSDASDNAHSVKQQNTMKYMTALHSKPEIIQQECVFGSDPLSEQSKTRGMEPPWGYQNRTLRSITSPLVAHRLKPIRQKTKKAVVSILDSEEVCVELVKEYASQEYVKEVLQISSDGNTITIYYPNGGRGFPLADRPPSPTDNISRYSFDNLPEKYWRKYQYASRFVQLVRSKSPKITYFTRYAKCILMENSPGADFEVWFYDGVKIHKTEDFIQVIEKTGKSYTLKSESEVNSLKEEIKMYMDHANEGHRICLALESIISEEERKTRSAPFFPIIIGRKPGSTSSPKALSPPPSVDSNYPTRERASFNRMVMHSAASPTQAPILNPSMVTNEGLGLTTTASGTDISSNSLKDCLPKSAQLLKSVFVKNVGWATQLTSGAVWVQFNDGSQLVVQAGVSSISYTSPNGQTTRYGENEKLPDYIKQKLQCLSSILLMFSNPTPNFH

CDC2L1 = target: T4, CDC2L1 (Homo sapiens, UniProt P21127)
T4 construct: gene CDK11B

ROS1 = ROS1 (Homo sapiens, UniProt P08922)
[1] = read-out: Niraparib (MK-4827) / %Ctrl @ 10000nM
[2] = read-out: Olaparib / %Ctrl @ 10000nM
[3] = read-out: Rucaparib / %Ctrl @ 10000nM, binding competition, % of control
[4] = read-out: Talazoparib (BMN 673) / %Ctrl @ 10000nM

Chain of PLK2 (Q9NYY3 whole entry): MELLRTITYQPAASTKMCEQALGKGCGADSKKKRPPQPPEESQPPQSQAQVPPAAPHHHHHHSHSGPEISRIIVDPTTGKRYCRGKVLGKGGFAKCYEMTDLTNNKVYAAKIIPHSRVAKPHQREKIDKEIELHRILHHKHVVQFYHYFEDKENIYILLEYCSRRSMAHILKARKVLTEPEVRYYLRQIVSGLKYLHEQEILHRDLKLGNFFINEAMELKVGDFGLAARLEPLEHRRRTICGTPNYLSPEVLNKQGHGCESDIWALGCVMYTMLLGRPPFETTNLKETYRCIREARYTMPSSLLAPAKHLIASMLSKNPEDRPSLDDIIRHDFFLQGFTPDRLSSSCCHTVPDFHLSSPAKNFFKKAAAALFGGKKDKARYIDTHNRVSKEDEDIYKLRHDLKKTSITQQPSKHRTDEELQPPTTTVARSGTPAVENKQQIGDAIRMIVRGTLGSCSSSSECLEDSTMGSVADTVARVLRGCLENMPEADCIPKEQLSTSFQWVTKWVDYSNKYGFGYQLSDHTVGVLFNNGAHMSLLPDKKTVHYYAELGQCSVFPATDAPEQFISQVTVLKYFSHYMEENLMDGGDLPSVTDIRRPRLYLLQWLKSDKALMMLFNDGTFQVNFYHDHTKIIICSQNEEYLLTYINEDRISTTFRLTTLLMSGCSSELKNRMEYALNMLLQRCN
T4 sequence (P21127 whole entry): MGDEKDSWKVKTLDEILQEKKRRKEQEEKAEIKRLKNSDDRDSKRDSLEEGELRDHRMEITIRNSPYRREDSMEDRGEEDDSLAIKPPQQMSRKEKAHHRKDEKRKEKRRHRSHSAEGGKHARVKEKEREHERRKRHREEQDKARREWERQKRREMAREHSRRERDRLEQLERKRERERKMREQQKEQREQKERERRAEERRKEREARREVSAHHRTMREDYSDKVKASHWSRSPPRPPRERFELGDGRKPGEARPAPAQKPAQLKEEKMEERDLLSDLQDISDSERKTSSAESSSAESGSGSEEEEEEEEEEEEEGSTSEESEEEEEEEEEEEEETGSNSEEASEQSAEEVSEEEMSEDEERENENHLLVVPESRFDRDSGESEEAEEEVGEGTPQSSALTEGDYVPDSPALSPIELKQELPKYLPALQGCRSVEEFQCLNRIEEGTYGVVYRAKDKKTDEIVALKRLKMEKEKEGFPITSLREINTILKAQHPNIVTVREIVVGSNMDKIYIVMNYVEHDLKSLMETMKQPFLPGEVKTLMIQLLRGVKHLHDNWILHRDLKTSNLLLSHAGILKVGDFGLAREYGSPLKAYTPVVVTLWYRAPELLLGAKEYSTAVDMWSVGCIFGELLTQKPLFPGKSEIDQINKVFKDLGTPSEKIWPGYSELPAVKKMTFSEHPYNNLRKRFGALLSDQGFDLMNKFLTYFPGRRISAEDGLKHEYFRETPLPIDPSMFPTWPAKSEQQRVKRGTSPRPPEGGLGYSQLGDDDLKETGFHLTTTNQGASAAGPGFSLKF
Chain of MET(Y1235D) (P08581 whole entry Y1235D): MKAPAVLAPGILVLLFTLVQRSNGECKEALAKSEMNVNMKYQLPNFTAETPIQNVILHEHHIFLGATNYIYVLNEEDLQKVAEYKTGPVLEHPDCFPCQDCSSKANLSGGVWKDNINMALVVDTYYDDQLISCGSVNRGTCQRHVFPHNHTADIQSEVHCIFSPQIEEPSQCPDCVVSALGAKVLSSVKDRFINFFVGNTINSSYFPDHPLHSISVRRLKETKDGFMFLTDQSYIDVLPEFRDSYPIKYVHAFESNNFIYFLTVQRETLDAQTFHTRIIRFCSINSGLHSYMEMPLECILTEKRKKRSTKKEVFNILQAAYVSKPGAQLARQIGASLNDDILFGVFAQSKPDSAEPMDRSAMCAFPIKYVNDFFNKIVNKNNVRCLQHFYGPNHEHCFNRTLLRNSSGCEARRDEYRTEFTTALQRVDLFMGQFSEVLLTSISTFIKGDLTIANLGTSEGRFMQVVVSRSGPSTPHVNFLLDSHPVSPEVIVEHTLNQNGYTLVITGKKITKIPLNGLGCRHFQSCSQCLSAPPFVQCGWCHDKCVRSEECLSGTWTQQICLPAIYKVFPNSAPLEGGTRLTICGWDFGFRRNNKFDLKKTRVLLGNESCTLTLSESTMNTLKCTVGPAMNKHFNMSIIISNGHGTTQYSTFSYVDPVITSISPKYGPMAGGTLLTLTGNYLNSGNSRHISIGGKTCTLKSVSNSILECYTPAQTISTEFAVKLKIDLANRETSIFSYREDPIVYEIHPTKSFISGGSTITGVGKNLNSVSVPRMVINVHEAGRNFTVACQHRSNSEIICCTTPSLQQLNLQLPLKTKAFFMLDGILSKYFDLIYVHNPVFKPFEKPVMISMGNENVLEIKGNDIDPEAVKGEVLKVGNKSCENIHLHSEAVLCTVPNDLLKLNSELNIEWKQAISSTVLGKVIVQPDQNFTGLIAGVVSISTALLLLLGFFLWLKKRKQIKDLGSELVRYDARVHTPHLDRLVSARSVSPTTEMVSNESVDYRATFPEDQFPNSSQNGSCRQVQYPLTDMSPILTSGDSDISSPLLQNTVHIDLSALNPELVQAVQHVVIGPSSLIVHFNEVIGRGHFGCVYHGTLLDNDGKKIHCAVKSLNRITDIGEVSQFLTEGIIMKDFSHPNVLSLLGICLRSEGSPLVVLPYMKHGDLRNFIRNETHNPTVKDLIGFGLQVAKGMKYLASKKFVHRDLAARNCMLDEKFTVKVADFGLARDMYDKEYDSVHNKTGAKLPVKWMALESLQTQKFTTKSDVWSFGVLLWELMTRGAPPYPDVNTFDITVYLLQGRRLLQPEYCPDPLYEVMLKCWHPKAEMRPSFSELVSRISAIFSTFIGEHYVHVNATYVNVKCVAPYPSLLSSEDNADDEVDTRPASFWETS

Structure (SMILES): NC(=O)c1cccc2cn(-c3ccc([C@@H]4CCCNC4)cc3)nc12 [Niraparib]
- percent of control binding at 10 µM (PRKCI; [1]): 85%
- percent of control binding at 10 µM (MET(Y1235D); [1]): 75%
- percent of control binding at 10 µM (DDR2; [1]): 90%
- percent of control binding at 10 µM (PLK2; [1]): 92%
- percent of control binding at 10 µM (PLK4; [1]): 56%
- percent of control binding at 10 µM (CDC2L1; [1]): 100%
- percent of control binding at 10 µM (ROS1; [1]): 80%

- percent of control binding at 10 µM (PRKCI; [2]): 100%
- percent of control binding at 10 µM (MET(Y1235D); [2]): 82%
- percent of control binding at 10 µM (DDR2; [2]): 92%
- percent of control binding at 10 µM (PLK2; [2]): 95%
- percent of control binding at 10 µM (PLK4; [2]): 91%
- percent of control binding at 10 µM (CDC2L1; [2]): 99%
- percent of control binding at 10 µM (ROS1; [2]): 97%
Structure (SMILES): O=C(c1cc(Cc2n[nH]c(=O)c3ccccc23)ccc1F)N1CCN(C(=O)C2CC2)CC1 [Olaparib]

- percent of control binding at 10 µM (PRKCI; [3]): 72%
- percent of control binding at 10 µM (MET(Y1235D); [3]): 92%
- percent of control binding at 10 µM (DDR2; [3]): 89%
- percent of control binding at 10 µM (PLK2; [3]): 76%
- percent of control binding at 10 µM (PLK4; [3]): 99%
- percent of control binding at 10 µM (CDC2L1; [3]): 99%
- percent of control binding at 10 µM (ROS1; [3]): 82%
Structure (SMILES): CNCc1ccc(-c2[nH]c3cc(F)cc4c3c2CCNC4=O)cc1 [Rucaparib]

- percent of control binding at 10 µM (PRKCI; [4]): 78%
- percent of control binding at 10 µM (MET(Y1235D); [4]): 96%
- percent of control binding at 10 µM (DDR2; [4]): 100%
- percent of control binding at 10 µM (PLK2; [4]): 100%
- percent of control binding at 10 µM (PLK4; [4]): 72%
- percent of control binding at 10 µM (CDC2L1; [4]): 100%
- percent of control binding at 10 µM (ROS1; [4]): 94%
Structure (SMILES): Cn1ncnc1[C@H]1c2n[nH]c(=O)c3cc(F)cc(c23)N[C@@H]1c1ccc(F)cc1 [Talazoparib]
